Assay results taken from patent US20230365590A1, “BIPHENYL COMPOUND AS IMMUNOMODULATOR, PREPARATION METHOD THEREFOR AND APPLICATION THEREOF” (SHENZHEN CHIPSCREEN BIOSCIENCES CO., LTD., priority 2020, published 2023).

What was measured:
[1] = clinical studies; cited from earlier work
[2] = Single-dosing pharmacokinetics test; type: in vivo, B-hPD-1/hPD-L1 female mice; conditions: female, B-hPD-1/hPD-L1 (humanized), mouse, po; humanized mice, single dose of 100 mg/kg by gavage, plasma
Protocol: 24 6-week old B-hPD-1/hPD-L1 female mice (purchased from Biocytogen (Jiangsu) Gene Biotechnology Co., Ltd.) were taken and the test compound was dissolved in a solvent containing 5% DMSO, 60% PEG400 and 35% purified water. The compound I-6 and three control molecules, Example 17, Compound 14 (INCB086550) and Example 180 were dosed. The compound was administered by gavage in a single dose of 100 mg/kg and blood was collected through fundus vein plexus after administration. The time points for blood collection were 15 min, 30 min, 1 h, 2 h, 4 h, 8 h, 24 h, 32 h and 48 h. About 0.1 mL of blood was collected and centrifuged in a centrifuge tube (heparin sodium anticoagulation) at 5000 rpm for 5 min to separate plasma, and then frozen at −20° C. for testing. After the plasma sample was treated, the concentration of the compound in the plasma was determined by liquid chromatography-mass spectrometry (LC-MS/MS). The pharmacokinetic parameters were calculated using Phoenix WinNonlin 7.0 based on the average blood concentration data at different time points.

[3] = Repeated-dosing pharmacokinetics test; type: in vivo, B-hPD-1/hPD-L1 humanized female mice; conditions: female, B-hPD-1/hPD-L1 (humanized), mouse, po; humanized mice, 50 mg/kg by gavage once a day for 12 days, plasma on day 12
Protocol: 24 6-week old B-hPD-1/hPD-L1 humanized female mice (purchased from Biocytogen (Jiangsu) Gene Biotechnology Co., Ltd.) were taken and the test compound was dissolved in a solvent containing 5% DMSO, 60% PEG400 and 35% purified water. The compound I-6 and three control molecules, Example 17, Compound 14 (INCB086550) and the aforementioned Example 180 were dosed. The compound was administered by gavage once a day in a dose of 50 mg/kg for 12 consecutive days, and blood was alternately collected through fundus vein plexus on day 12 of administration. The time points for blood collection were 15 min, 30 min, 1 h, 2 h, 4 h, 8 h, 24 h, 32 h and 48 h. About 0.1 mL of blood was collected and centrifuged in a centrifuge tube (heparin sodium for anticoagulation) at 5000 rpm for 5 min to separate plasma, and then frozen at −20° C. for testing. The concentration of the compound in the plasma was determined by liquid chromatography-mass spectrometry (LC-MS/MS). The pharmacokinetic parameters were calculated using Phoenix WinNonlin 7.0 based on the average blood concentration data at different time points.

Row | AUC(0-t) [2] | MRT [2] | half-life [2] | AUC(0-t) [3] | MRT [3] | half-life [3] | Compound | half time T1/2 [1]
1 |  |  |  |  |  |  | pembrolizumab: PD-1/PD-L1 antibody drug | 600 h
2 |  |  |  |  |  |  | nivolumab: PD-1/PD-L1 antibody drug | 605 h
3 | 19600 ng·h/mL | 5.9 h | 3.9 h | 10600 ng·h/mL | 5 h | 3.7 h | Cc1c(Nc2nccc3cc(CN4CC[C@@H](O)C4)cnc23)cccc1-c1cccc(-c2nc3cc(CN4CC[C@@H](C(=O)O)C4)cc(C#N)c3o2)c1C [Compound 14 (INCB086550)] | 
4 | 118000 ng·h/mL | 4.2 h | 3.8 h | 58800 ng·h/mL | 4.6 h | 3.9 h | Cn1c(C(=O)Nc2cccc(-c3cccc(NC(=O)c4nc5c(n4C)CCN(CCC46CCC(C(=O)O)(CC4)C6)C5)c3Cl)c2Cl)nc2c1CCN(CCC13CCC(C(=O)O)(CC1)C3)C2 [Example 17] | 
5 |  |  |  |  |  |  | atezolizumab: PD-1/PD-L1 antibody drug | 648 h
